Reference: ChEMBL document CHEMBL3885861, “Open TG-GATES”

Species: Rattus norvegicus
Test: Open TG-GATES - Regimen: Daily Repeat
Assay type: toxicity, organism-based, Sprague-Dawley
Design: regimen Daily Repeat, gender Male, age 6 weeks
Details: in vivo, po, route gavage; for APTT / Bas / Eos / Fbg / Hb / Ht / Lym / MCH / MCHC / MCV / Mono / Neu / PT / Plat / RBC / Ret / WBC: tissue Blood; for KIDNEY_L / KIDNEY_R / KIDNEY_TOTAL: tissue Kidney; for LIVER: tissue Liver; for A/G / ALP / ALT / AST / BUN / CRE / Ca / Cl / DBIL / GLC / IP / K / LDH / Na / PL / RALB / TBIL / TC / TG / TP / gamma-GTP: tissue Plasma
[1] = 0 mg/kg, 72 h, dose level Control, time 3 day
[2] = 0 mg/kg, […], dose level Control, time 7 day
[3] = 0 mg/kg, […], dose level Control, time 14 day
[4] = 0 mg/kg, […], dose level Control, time 28 day
[5] = 100 mg/kg, 72 h, dose level Low, time 3 day
[6] = 100 mg/kg, […], dose level Low, time 7 day
[7] = 100 mg/kg, […], dose level Low, time 14 day
[8] = 100 mg/kg, […], dose level Low, time 28 day

## CCOC(=O)CCC(=O)O[C@H]1[C@H](O[C@@H]2[C@@H](C)[C@H](O[C@H]3C[C@@](C)(OC)[C@@H](O)[C@H](C)O3)[C@@H](C)C(=O)O[C@H](CC)[C@@](C)(O)[C@H](O)[C@@H](C)C(=O)[C@H](C)C[C@@]2(C)O)O[C@H](C)C[C@@H]1N(C)C [ERYTHROMYCIN ETHYLSUCCINATE]
[1]
  TERMINAL_BW: 237.5 g
  APTT: 21.3 s
  Bas: 0%
  Eos: 1%
  Fbg: 295.4 mg/dL
  Hb: 13.4 g/dL
  Ht: 39.6%
  Lym: 78.6%
  MCH: 21.3 pg
  MCHC: 33.7%
  MCV: 63 fL
  Mono: 3.4%
  Neu: 16.2%
  PT: 16.3 s
  Plat: 124.3 x10_4/uL
  RBC: 628.8 x10_4/ul
  Ret: 6.2%
  WBC: 96.6 x10_2/uL
  KIDNEY_L: 1.1 g
  KIDNEY_R: 1.1 g
  KIDNEY_TOTAL: 2.1 g
  LIVER: 10.7 g
  A/G: 1.2
  ALP: 1575.2 IU/L
  ALT: 38.2 IU/L
  AST: 68.6 IU/L
  BUN: 17.8 mg/dL
  CRE: 0.2 mg/dL
  Ca: 10.1 mg/dL
  Cl: 107.6 meq/L
  DBIL: 0 mg/dL
  GLC: 198.2 mg/dL
  IP: 6.6 mg/dL
  K: 4.3 meq/L
  LDH: 181.8 IU/L
  Na: 141 meq/L
  PL: 139.8 mg/dL
  RALB: 2.9 g/dL
  TBIL: 0.016 mg/dL
  TC: 71.4 mg/dL
  TG: 91 mg/dL
  TP: 5.4 g/dL
  gamma-GTP: 1.2 IU/L
[2]
  TERMINAL_BW: 272.7 g
  APTT: 20.5 s
  Bas: 0%
  Eos: 1%
  Fbg: 307.2 mg/dL
  Hb: 14.1 g/dL
  Ht: 41.9%
  Lym: 78.2%
  MCH: 21 pg
  MCHC: 33.6%
  MCV: 62.4 fL
  Mono: 2.4%
  Neu: 17.4%
  PT: 16.6 s
  Plat: 119.4 x10_4/uL
  RBC: 673.2 x10_4/ul
  Ret: 6.2%
  WBC: 121.5 x10_2/uL
  KIDNEY_L: 1.1 g
  KIDNEY_R: 1.1 g
  KIDNEY_TOTAL: 2.2 g
  LIVER: 12.3 g
  A/G: 1.1
  ALP: 1670.4 IU/L
  ALT: 43 IU/L
  AST: 72.2 IU/L
  BUN: 20.4 mg/dL
  CRE: 0.2 mg/dL
  Ca: 10.7 mg/dL
  Cl: 107.6 meq/L
  DBIL: 0 mg/dL
  GLC: 216.8 mg/dL
  IP: 7.3 mg/dL
  K: 4.3 meq/L
  LDH: 201.8 IU/L
  Na: 141.2 meq/L
  PL: 155.2 mg/dL
  RALB: 2.9 g/dL
  TBIL: 0 mg/dL
  TC: 70.8 mg/dL
  TG: 133.4 mg/dL
  TP: 5.6 g/dL
  gamma-GTP: 1.4 IU/L
[3]
  TERMINAL_BW: 330.3 g
  APTT: 22.3 s
  Bas: 0%
  Eos: 1%
  Fbg: 317.8 mg/dL
  Hb: 13.9 g/dL
  Ht: 40.4%
  Lym: 80.2%
  MCH: 21.2 pg
  MCHC: 34.5%
  MCV: 61.5 fL
  Mono: 2.4%
  Neu: 14.8%
  PT: 16.3 s
  Plat: 104.3 x10_4/uL
  RBC: 656.6 x10_4/ul
  Ret: 5.2%
  WBC: 110.8 x10_2/uL
  KIDNEY_L: 1.3 g
  KIDNEY_R: 1.3 g
  KIDNEY_TOTAL: 2.6 g
  LIVER: 14.7 g
  A/G: 1.1
  ALP: 1330.4 IU/L
  ALT: 46.6 IU/L
  AST: 76 IU/L
  BUN: 21 mg/dL
  CRE: 0.2 mg/dL
  Ca: 10.5 mg/dL
  Cl: 105.2 meq/L
  DBIL: 0 mg/dL
  GLC: 207.2 mg/dL
  IP: 7.1 mg/dL
  K: 4.5 meq/L
  LDH: 208.6 IU/L
  Na: 141.4 meq/L
  PL: 153.4 mg/dL
  RALB: 2.9 g/dL
  TBIL: 0 mg/dL
  TC: 73 mg/dL
  TG: 135.2 mg/dL
  TP: 5.7 g/dL
  gamma-GTP: 2.2 IU/L
[4]
  TERMINAL_BW: 372.4 g
  APTT: 24.4 s
  Bas: 0%
  Eos: 1%
  Fbg: 317.2 mg/dL
  Hb: 15.2 g/dL
  Ht: 44%
  Lym: 81.8%
  MCH: 19.4 pg
  MCHC: 34.6%
  MCV: 56.2 fL
  Mono: 2.8%
  Neu: 13%
  PT: 16.4 s
  Plat: 99.6 x10_4/uL
  RBC: 783.8 x10_4/ul
  Ret: 2.7%
  WBC: 109.9 x10_2/uL
  KIDNEY_L: 1.4 g
  KIDNEY_R: 1.4 g
  KIDNEY_TOTAL: 2.8 g
  LIVER: 14.6 g
  A/G: 1.1
  ALP: 1212.8 IU/L
  ALT: 45.8 IU/L
  AST: 71.6 IU/L
  BUN: 19.6 mg/dL
  CRE: 0.2 mg/dL
  Ca: 10.4 mg/dL
  Cl: 106.6 meq/L
  DBIL: 0 mg/dL
  GLC: 189.4 mg/dL
  IP: 6.2 mg/dL
  K: 4.1 meq/L
  LDH: 130.6 IU/L
  Na: 141 meq/L
  PL: 135.8 mg/dL
  RALB: 3 g/dL
  TBIL: 0.01 mg/dL
  TC: 62 mg/dL
  TG: 118.4 mg/dL
  TP: 5.9 g/dL
  gamma-GTP: 2.8 IU/L
[5]
  TERMINAL_BW: 235.5 g
  APTT: 21.4 s
  Bas: 0%
  Eos: 1%
  Fbg: 324.6 mg/dL
  Hb: 13.4 g/dL
  Ht: 39.4%
  Lym: 83.4%
  MCH: 20.7 pg
  MCHC: 33.9%
  MCV: 61.1 fL
  Mono: 3%
  Neu: 11.6%
  PT: 15.9 s
  Plat: 120.2 x10_4/uL
  RBC: 645.4 x10_4/ul
  Ret: 4.9%
  WBC: 101.8 x10_2/uL
  KIDNEY_L: 1 g
  KIDNEY_R: 1 g
  KIDNEY_TOTAL: 2 g
  LIVER: 10.5 g
  A/G: 1.2
  ALP: 1729.8 IU/L
  ALT: 44.4 IU/L
  AST: 77.2 IU/L
  BUN: 18 mg/dL
  CRE: 0.1 mg/dL
  Ca: 10.3 mg/dL
  Cl: 107.2 meq/L
  DBIL: 0 mg/dL
  GLC: 187.2 mg/dL
  IP: 7.1 mg/dL
  K: 4.4 meq/L
  LDH: 179.8 IU/L
  Na: 141.4 meq/L
  PL: 130 mg/dL
  RALB: 3 g/dL
  TBIL: 0.024 mg/dL
  TC: 69.2 mg/dL
  TG: 72.2 mg/dL
  TP: 5.5 g/dL
  gamma-GTP: 1.2 IU/L
[6]
  TERMINAL_BW: 255.3 g
  APTT: 21.7 s
  Bas: 0%
  Eos: 0.8%
  Fbg: 311.8 mg/dL
  Hb: 13.6 g/dL
  Ht: 40%
  Lym: 84.6%
  MCH: 20.4 pg
  MCHC: 33.9%
  MCV: 60.1 fL
  Mono: 2.2%
  Neu: 11.4%
  PT: 16.8 s
  Plat: 107.9 x10_4/uL
  RBC: 667.2 x10_4/ul
  Ret: 5.3%
  WBC: 77.9 x10_2/uL
  KIDNEY_L: 1.1 g
  KIDNEY_R: 1.1 g
  KIDNEY_TOTAL: 2.2 g
  LIVER: 11.1 g
  A/G: 1.1
  ALP: 1592.6 IU/L
  ALT: 36.4 IU/L
  AST: 64.6 IU/L
  BUN: 18.4 mg/dL
  CRE: 0.2 mg/dL
  Ca: 10.5 mg/dL
  Cl: 108.2 meq/L
  DBIL: 0 mg/dL
  GLC: 194.2 mg/dL
  IP: 7 mg/dL
  K: 4.2 meq/L
  LDH: 129 IU/L
  Na: 141.2 meq/L
  PL: 135.8 mg/dL
  RALB: 2.9 g/dL
  TBIL: 0 mg/dL
  TC: 68.6 mg/dL
  TG: 111.4 mg/dL
  TP: 5.5 g/dL
  gamma-GTP: 1.6 IU/L
[7]
  TERMINAL_BW: 320.9 g
  APTT: 20.2 s
  Bas: 0%
  Eos: 1.2%
  Fbg: 338 mg/dL
  Hb: 13.8 g/dL
  Ht: 39.8%
  Lym: 82%
  MCH: 20.6 pg
  MCHC: 34.9%
  MCV: 59.1 fL
  Mono: 2.2%
  Neu: 13.8%
  PT: 16.3 s
  Plat: 113.3 x10_4/uL
  RBC: 673.2 x10_4/ul
  Ret: 4.7%
  WBC: 110.5 x10_2/uL
  KIDNEY_L: 1.2 g
  KIDNEY_R: 1.3 g
  KIDNEY_TOTAL: 2.5 g
  LIVER: 13.3 g
  A/G: 1.2
  ALP: 1442.8 IU/L
  ALT: 36.8 IU/L
  AST: 66 IU/L
  BUN: 20.2 mg/dL
  CRE: 0.2 mg/dL
  Ca: 10.7 mg/dL
  Cl: 107.2 meq/L
  DBIL: 0 mg/dL
  GLC: 196.8 mg/dL
  IP: 6.8 mg/dL
  K: 4.4 meq/L
  LDH: 150 IU/L
  Na: 142.2 meq/L
  PL: 150.2 mg/dL
  RALB: 3.1 g/dL
  TBIL: 0.005 mg/dL
  TC: 79 mg/dL
  TG: 102 mg/dL
  TP: 5.7 g/dL
  gamma-GTP: 2.2 IU/L
[8]
  TERMINAL_BW: 401.9 g
  APTT: 23.6 s
  Bas: 0%
  Eos: 1.2%
  Fbg: 339 mg/dL
  Hb: 15.1 g/dL
  Ht: 43.9%
  Lym: 86%
  MCH: 19.6 pg
  MCHC: 34.5%
  MCV: 56.8 fL
  Mono: 2%
  Neu: 9.4%
  PT: 16 s
  Plat: 107.2 x10_4/uL
  RBC: 772.2 x10_4/ul
  Ret: 2.7%
  WBC: 102.2 x10_2/uL
  KIDNEY_L: 1.4 g
  KIDNEY_R: 1.4 g
  KIDNEY_TOTAL: 2.9 g
  LIVER: 16.2 g
  A/G: 1.2
  ALP: 1003.2 IU/L
  ALT: 37.8 IU/L
  AST: 59.2 IU/L
  BUN: 19.2 mg/dL
  CRE: 0.2 mg/dL
  Ca: 10.3 mg/dL
  Cl: 106.4 meq/L
  DBIL: 0 mg/dL
  GLC: 194.4 mg/dL
  IP: 6.9 mg/dL
  K: 4.1 meq/L
  LDH: 114 IU/L
  Na: 141.8 meq/L
  PL: 152 mg/dL
  RALB: 3.1 g/dL
  TBIL: 0.006 mg/dL
  TC: 78.8 mg/dL
  TG: 127.4 mg/dL
  TP: 5.9 g/dL
  gamma-GTP: 2.2 IU/L
